# US20250034150A1, “BTK INHIBITORS” (BIOGEN MA INC., priority 2021, published 2025)
# Read-outs that look alike come from different tables or passages of the source.
# Assays:
# BTK = target: T1, BTK (Homo sapiens, UniProt Q06187); experiment: In Vitro BTK Kinase Assay: Btk-PolyGAT-LS Assay; assay type: biochemical; settings: active BTK enzyme 0.25 nM, polyGAT 100 nM, 30 minutes, TRF readout; read-out: In Vitro BTK Kinase Assay IC50 Score
# T1 construct: purchased Upstate 14-552
# Procedure, shortened: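 Active BTK at 0.25 nM phosphorylated 100 nM fluorescein-polyGAT peptide at 10 μM ATP for 30 minutes. Buffer was Tris pH 7.5 with MgCl2, DTT, Triton X-100 and casein, and reactions were stopped with EDTA. Phospho-peptide was detected by Tb-PY20 antibody TR-FRET, and IC50 came from a four-parameter fit normalized to DMSO and EDTA controls.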
# [1] = system: CD69 expression on CD19+ B cells in human whole blood; experiment: In Vitro whole blood CD69 Assay; assay type: cell-based; settings: B-cell, read-out: In Vitro HWB CD69 Assay IC50 Score
# Experimental: Human heparinized venous blood from health donors was aliquoted into 96-well plate and “spiked” with serial dilutions of formula I compounds in DMSO or with DMSO without drug. The final concentration of DMSO in all wells was 0.1%. The plate was incubated at 37° C. for 30 min. Drug-containing samples were stimulated with 0.1 μg/mL mouse anti-human IgD-dextran (1A62) or 20 μg/mL polyclonal rabbit F(ab′)2 anti-human IgD. Phosphate-buffered saline (PBS) was added to the negative control unstimulated sample and the plates were incubated overnight (18 to 22 hours) at 37° C. Cells were stained with fluorochrome-conjugated anti-CD19 and anti-CD69 antibodies. Lyse/fix solution was used to remove red blood cells by hypotonic lysis and to fix the remaining cells, which were then analyzed by flow cytometry. CD19+ B cells were gated and analyzed for CD69 expression.
# [2] = human heparinized whole blood, anti-human IgD stimulation overnight, CD19+ B cells, flow cytometry
# T1 sequence (Q06187 whole entry): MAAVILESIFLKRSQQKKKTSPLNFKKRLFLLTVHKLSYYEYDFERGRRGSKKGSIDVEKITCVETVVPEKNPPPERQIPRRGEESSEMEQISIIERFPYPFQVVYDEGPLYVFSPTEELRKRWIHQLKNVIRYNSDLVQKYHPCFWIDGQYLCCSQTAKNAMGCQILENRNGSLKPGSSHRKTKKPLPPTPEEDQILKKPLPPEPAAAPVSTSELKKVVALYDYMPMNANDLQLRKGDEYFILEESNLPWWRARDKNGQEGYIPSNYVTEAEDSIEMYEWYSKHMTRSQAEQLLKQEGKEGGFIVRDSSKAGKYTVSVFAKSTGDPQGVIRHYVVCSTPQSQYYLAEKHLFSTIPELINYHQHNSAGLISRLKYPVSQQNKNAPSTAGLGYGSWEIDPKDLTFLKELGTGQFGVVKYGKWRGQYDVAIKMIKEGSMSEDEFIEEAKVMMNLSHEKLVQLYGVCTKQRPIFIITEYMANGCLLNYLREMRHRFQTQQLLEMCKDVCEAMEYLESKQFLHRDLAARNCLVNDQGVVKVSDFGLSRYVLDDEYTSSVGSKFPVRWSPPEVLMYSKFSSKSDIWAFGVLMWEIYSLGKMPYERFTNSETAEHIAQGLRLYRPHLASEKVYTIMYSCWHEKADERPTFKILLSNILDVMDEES
SMILES,IC50 (BTK) [µM],"IC50 [1, 2] [µM]",IC50 ([1]; Homo sapiens) [µM]
"Cn1cc(-c2cc3nccn3c(-c3ccc(CNC(=O)c4nc(C(C)(C)C)no4)cc3)n2)cn1 [Example 64, 3-(tert-butyl)-N-(4-(7-(1-methyl-1H-pyrazol-4-yl)imidazo[1,2-c]pyrimidin-5-yl)benzyl)-1,2,4-oxadiazole-5-carboxamide]",< 0.001,< 1,
"Cn1cc(-c2cn3nccc3c(-c3ccc(CNC(=O)c4nc(C(C)(C)C)no4)c(F)c3F)n2)cn1 [Example 89, 3-(tert-butyl)-N-(2,3-difluoro-4-(6-(1-methyl-1H-pyrazol-4-yl)pyrazolo[1,5-a]pyrazin-4-yl)benzyl)-1,2,4-oxadiazole-5-carboxamide]",< 0.001,,< 1
"COCCOc1cn2nccc2c(-c2ccc(CNC(=O)c3cn(C(C)(C)C)nn3)c(C)c2)n1 [Example 122, 1-(tert-butyl)-N-(4-(6-(2-methoxyethoxy)pyrazolo[1,5-a]pyrazin-4-yl)-2-methylbenzyl)-1H-1,2,3-triazole-4-carboxamide]",0.001 to 0.01,< 1,
"Cn1cc(-c2cn3nccc3c(-c3ccc(CNC(=O)c4nc(C(C)(C)C)no4)c(C(F)F)c3)n2)cn1 [Example 100, 3-(tert-butyl)-N-(2-(difluoromethyl)-4-(6-(1-methyl-1H-pyrazol-4-yl)pyrazolo[1,5-a]pyrazin-4-yl)benzyl)-1,2,4-oxadiazole-5-carboxamide]",< 0.001,< 1,
"Cn1cc(-c2cn3nccc3c(-c3ccc(CNC(=O)c4nnn(C(C)(C)C)n4)cc3F)n2)cn1 [Example 114, 2-(tert-butyl)-N-(3-fluoro-4-(6-(1-methyl-1H-pyrazol-4-yl)pyrazolo[1,5-a]pyrazin-4-yl)benzyl)-2H-tetrazole-5-carboxamide]",< 0.001,< 1,
"Cn1cc(-c2cn3nccc3c(-c3ccc(CNC(=O)c4noc(C(C)(C)CF)n4)cc3)n2)cn1 [Example 22, 5-(1-fluoro-2-methylpropan-2-yl)-N-(4-(6-(1-methyl-1H-pyrazol-4-yl)pyrazolo[1,5-a]pyrazin-4-yl)benzyl)-1,2,4-oxadiazole-3-carboxamide]",< 0.001,< 1,
"Cc1cc(-c2nc(-c3cnn(C)c3)cc3nccn23)ccc1CN1Cc2nc(C(C)(C)C)sc2C1=O [Example 38, 2-(tert-butyl)-5-(2-methyl-4-(7-(1-methyl-1H-pyrazol-4-yl)imidazo[1,2-c]pyrimidin-5-yl)benzyl)-4,5-dihydro-6H-pyrrolo[3,4-d]thiazol-6-one]",< 0.001,1 to 10,
"Cc1cc(-c2nc(-c3cnn(C)c3)cn3nccc23)ccc1CN1CCN(CC(C)(C)C)CC1=O [Example 31, 1-(2-methyl-4-(6-(1-methyl-1H-pyrazol-4-yl)pyrazolo[1,5-a]pyrazin-4-yl)benzyl)-4-neopentylpiperazin-2-one]",0.001 to 0.01,1 to 10,
"Cn1cc(-c2cn3nccc3c(-c3ccc(CNC(=O)c4cn(C(C)(C)C)nn4)cc3)n2)cn1 [Example 4, 1-(tert-butyl)-N-(4-(6-(1-methyl-1H-pyrazol-4-yl)pyrazolo[1,5-a]pyrazin-4-yl)benzyl)-1H-1,2,3-triazole-4-carboxamide]",< 0.001,< 1,
"Cn1cc(-c2cn3nccc3c(-c3cc(F)c(CNC(=O)c4noc(C(C)(C)C)n4)cc3F)n2)cn1 [Example 84, 5-(tert-butyl)-N-(2,5-difluoro-4-(6-(1-methyl-1H-pyrazol-4-yl)pyrazolo[1,5-a]pyrazin-4-yl)benzyl)-1,2,4-oxadiazole-3-carboxamide]",< 0.001,< 1,
"Cn1cc(-c2cc3nccn3c(-c3ccc(CNC(=O)c4nnc(C(C)(C)C)o4)cc3)n2)cn1 [Example 61, 5-(tert-butyl)-N-(4-(7-(1-methyl-1H-pyrazol-4-yl)imidazo[1,2-c]pyrimidin-5-yl)benzyl)-1,3,4-oxadiazole-2-carboxamide]",0.01 to 1,1 to 10,
